“Also recorded” adds a separate entry of the source. Where two headings read alike, the source gives them in different places.

Data set [1] can be described thus: Stability in tris glycine buffer before AP addition (31P NMR). The class given is physicochemical. Conditions: 0.100 M tris glycine buffer, 1.0 mM ZnCl2, 1.0 mM MgCl2, 1 h. How it is done:
(§1) Compound 19d (10.0 mg, 0.016 mmol) or compound 3 (8.7 mg, 0.016 mmol) were dissolved in 0.6 mL of a 0.100 M tris glycine buffer solution containing 1.0 mM ZnCl2 and 1.0 mM MgCl2. […] 50 μL of the previously prepared AP stock solution was further diluted by addition to 0.950 mL of a 0.100 M tris glycine buffer containing 1.0 mM ZnCl2 and 1.0 mM MgCl2. 10.0 μL of this diluted AP solution was added to the prodrug solution by syringe. A series of 42 inverse-gated decoupled ^31P NMR's were taken (24 scans each, approximately one minute acquisition time). Conversion (%) was determined from the relative integration of the starting material and product peaks, NMR time stamps were used to determine time. Each experiment was repeated three times.

Data set [2] is classed as physicochemical. As to conditions: for percent starting material remaining: after one week at rt in D2O solution; for stability on cold storage: stored in a freezer / cold. The method, then:
Measurement of chemical stability of phosphorylated compounds. 4.0 mg of prodrug (19b, 19c, or 19d) were dissolved in 1.0 mL D2O. A sealed capillary tube containing phenylphosphonic acid dissolved in D2O was added as a standard. At time=0, a ^1H NMR spectrum was obtained and the proton signal at […]5.51 was integrated (It=0) relative to the aromatic signals from phenylphosphonic acid. After 7 days at rt, a new NMR spectrum was taken and the proton signal at δ 5.51 was integrated again (It=7). The percent starting material remaining was It=7/It=0×100. Each experiment was repeated three times. Chemical stability results obtained either by measuring the disappearance of starting material relative to the internal standard by ^31P NMR or by using inverse-gated decoupled phosphorus NMR and integrating starting material and product were very similar to the numbers obtained using ^1H NMR. For 19e, 4.0 mg 19b was dissolved in D2O and an additional equivalent of Tris added (the stoichiometry was confirmed by ^1H NMR) and the experiment conducted as above.

A short description of data set [3]: Aqueous solubility of prodrug salts. Conditions: water.
The format of data set [4] is physicochemical. As to conditions: after one day at rt. The method, then:
Chemical stability in pH 7.4 tris-buffered saline. 4.0 mg of prodrug 19d was dissolved in 0.9 mL H2O. To this solution was added 0.1 mL of tris-buffered saline (BM-300 from Boston BioProducts), containing tris (250 mM), KCl (27 mM), and NaCl (1.37 M). A sealed capillary tube containing phenylphosphonic acid dissolved in D2O was added as a standard. Chemical stability results were obtained by measuring the disappearance of starting material relative to the internal standard by ^31P NMR. The experiment was repeated three times. The standard deviation was ±3%.

Data set [5] has as its system Alkaline phosphatase from bovine intestinal mucosa. Description: Alkaline phosphatase activation of prodrugs (31P NMR). The format is biochemical. As to conditions: in vitro, FIG. 5. The method, then:
Alkaline phosphatase activation of prodrugs 3 and 19d. Alkaline phosphatase from bovine intestinal mucosa (Sigma-Aldrich, P5521-2KU) was dissolved in 2.0 mL of a 0.100 M sodium glycine buffer containing 1.0 mM ZnCl2 and 1.0 mM MgCl2. This stock solution was stored at 4° C. between uses.
as §1

Data set [6] relates to SH-SY5Y cells. Description: MTT cell viability, SNP-induced cytotoxicity. As to conditions: for impact on UDCA-mediated protection against SNP-induced cytotoxicity: inhibitor 1 h, UDCA 200 μM 1 h, SNP 1 mM 24 h.
Method: (§3) Human dopaminergic neuronal cell line, SH-SY5Y, was cultured in DMEM/F12 medium supplemented with 10% FBS (v/v), penicillin (100 U/m)-streptomycin (100 μg/ml) in 5% CO2 at 37° C. […] Usually, the culture medium was changed to DMEM/F12 medium with 0.5% FBS before any treatment to reduce the serum effect. In order to prevent the direct interaction between the treated chemicals, the culture medium was changed to fresh low-serum medium at the ent of pretreatment. UDCA was dissolved in ethanol as a 100× stock solution and diluted to the desired final concentrations. To estimate cell viability, 3-(4,5-dimetnylthiazol-2-yl)-2,5-diphenyltetrazolium bromide (MTT) reduction assay was performed. After cells were treated ad culture medium was removed, MTT solution (50 μg, 1 mg/ml in phosphate buffered saline, PBS) was added to each well in 96-well plate and incubated for 4 h at 37° C. The medium was carefully removed, 100 μl DMSO added to each well, and the plate agitated on an orbital shaker for 15 min to dissolve the formazan. The absorbance was measured at 540 nm using a microplate reader (SepctraMax M2, Molecular Devices).
For data set [7], the system named is SH-SY5Y cells.
Method: as §3
A further data set concerns mitochondrial membrane. Description: Bax-induced alterations of mitochondrial membrane (FIG. 1, 2).
In data set [8] the test system is SH-SY5Y cells. As to the kind of experiment: Total ROS production (H2DCFDA). The class given is cell-based, human. Conditions: 1 mM SNP. How it is done:
(§2) After washing with Hank's balanced salt solution (HBSS), cells were incubated with 20 μM H2DCFDA or 50 μM DHR at 37° C. for 30 min, and then rinsed with HBSS. The fluorescence intensity was measured using an automatic fluorescence microplate reader (SpectraMax M2, Molecular Devices) at an excitation wavelength of 485 nm and an emission of 535 nm. The values were expressed as a percentage of fluorescence intensity to the untreated control group. The production of NO was determined by measuring nitrite, a stable oxidation product of NO in the culture medium. […] After a 10-min reaction, the absorbance at 550 nm was measured in a microplate reader (VersaMax, Molecular Devices). Sodium nitrite (NaNO2) was used as a standard to calculate nitrite concentrate and the values were expressed in micromoles.

The subject of data set [9] is SH-SY5Y cells. As to the kind of experiment: Mitochondrial membrane potential (JC-1). The class given is cell-based, human. The method, then:
Anaspec Inc.). JC-1 preferentially accumulates in mitochondria as red aggregates in normal conditions but it exists as green monomers in the cytosol when MMP collapsed during apoptosis. The ratio of red/green fluorescence correlates with MMP. […] Next, 5 μg/ml JC-1 was added and incubated at 37° C. for 15 min in dark. After wash three times with PBS, MMP was measured at 535/590 nm (Ex/Em) for red fluorescence and 485/535 (Ex/Em) for green fluorescence using a fluorescence multimode microplate reader (Infinite 200; Tecan). Results were calculated as the ratio of red-to-green fluorescence and the values were expressed as the percentage over control.

In data set [10] the test system is SH-SY5Y cells. As to the kind of experiment: NO production (Griess reagent, nitrite). As to conditions: SNP 24 h. The format is cell-based, human. How it is done: as §2
Background: Griess reagent forms a coloured azo dye with nitrite.

The subject of data set [11] is SH-SY5Y cells. As to the kind of experiment: Nuclear staining (Hoechst 33342/PI) for apoptosis and necrosis. The class given is cell-based, human. As to conditions: pretreatment prior to SNP 1 mM 24 h. The method, then: For the fluorescent detection of apoptotic and necrotic cells, nuclear staining with Hoechst dye 33342 and propidium iodide (PI) was performed. SH-SY5Y cells were exposed to SNP (1 mM) for 24 h with or without pretreatment with UDCA or YS. After fixation with 1% paraformaldehyde (PBS) for 30 min at room temperature, cells were washed with PBS and then stained with Hoechst 33342 (10 μM) for 10 min. Cells were washed with PBS and further stained with PI (10 μM) for 10 min. Stained cells were washed with PBS and observed under a fluorescent microscopy. The apoptotic cells were determined as bright condensed and fragmented nuclei. PI positive cells stained with pink to red color were counted as necrotic cells.

The test system of a further data set is Primary rat hepatocytes. Description: Microarray gene expression profiling (Affymetrix Rat Expression Array 230A). The format is cell-based. As to conditions: 100 μM UDCA, 24 h. How it is done: We determined the global profile of genes regulated by UDCA by using Affymetrix GeneChip® Rat Expression Array 230A, consisting of approximately 16,000 transcripts and variants. cRNA prepared from vehicle-treated cells was used for comparative analysis. The relative levels of gene expression after 24 h treatment of hepatocytes with 100 μM UDCA were compared by plotting the average difference between cells, and determining the fold change in gene expression. […] We also assessed the specificity and sensitivity of the microarray analysis. Hierarchical clustering was performed using specific gene subsets.

For another data set, the system named is Bcl-2, Bax, cytochrome c. As to the kind of experiment: Immunoblot analysis of Bcl-2, Bax, cytochrome c. The class given is cell-based, human. A general note: Immunoblotting shows a protein as a band on a membrane.

Method for Bcl-2, Bax, cytochrome c: Whole cell proteins were extracted using RIPA buffer (PBS, 1% NP-40, 0.5% Na deoxycholate, 0.1% SDS, 0.1 mg/ml PMSF, 30 mg/ml aprotinin, 1 mM Na3VO4). Cells were washed twice with PBS, lysed with RIPA buffer for 30 min on ice, and then centrifuged at 14,000×g for 10 min at 4° C. The supernatants were used as the total cell lysates. In some experiments, mitochondrial fraction was prepared from SH-Sy5Y cells using mitochondrial/cytosolic fraction kit (Biovision, Inc., Mountain View) according to the manufacturer's protocol. Protein concentration was determined by BCA protein assay kit (BioRad, Hercules, Calif.) using bovine serum albumin as a standard. […] The membrane was flocked in fresh blocking buffer (5% nonfat dry milk in Tris-buffered saline, pH 7.4, and containing 0.1% Tween 20) for 2 h at room temperature and rinsed in TBST buffer (0.1% Tween 20 in Tris-buffered saline, pH 7.4). The membrane was incubated at 4° C. with the following primary antibodies at dilutions of 1/1000: Bax, cytochrome c, Cox-4 or 1/4000: Bcl-2, actin. After three times washing with TBST buffer, membranes were incubated with horse radish peroxidase (HRP)-conjugated secondary antibodies (1:2000 dilutions) for 2 h at room temperature. Subsequently, the membrane was washed in TBST and the immunoreactive bands were detected by ECL chemiluminescence kit (GE Healthcare, USA). Protein bands were quantified by densitometric analysis.

With `C[C@H](CCC(=O)[O-])[C@H]1CC[C@H]2[C@@H]3[C@@H](O)C[C@@H]4C[C@H](OP(=O)([O-])O)CC[C@]4(C)[C@H]3CC[C@]12C.[Na+].[Na+]` [Compound 3, 3-(Phosphonatooxy)-ursodeoxycholic acid sodium salt], the “decomposition by 31P NMR in buffer” value in data set [1] is listed as “Neither compound showed decomposition”.
Consider `C[C@H](CCC(=O)[O-])[C@H]1CC[C@H]2[C@@H]3[C@@H](OCOP(=O)(O)O)C[C@@H]4C[C@H](O)CC[C@]4(C)[C@H]3CC[C@]12C.C[C@H](CCC(=O)[O-])[C@H]1CC[C@H]2[C@@H]3[C@@H](OCOP(=O)(O)O)C[C@@H]4C[C@H](O)CC[C@]4(C)[C@H]3CC[C@]12C.[Na+].[Na+]` [Compound 13b, 7-(Phosphonooxymethoxy)-ursodeoxycholic acid sodium salt], for which the “stability in D2O solution overnight” value in data set [2] (D2O, overnight) is reported as “a significant portion of the material decomposed”. The “aqueous solubility, rapidly dissolving at all concentrations tested” value (shortened to “aqueous solubility, rapidly dissolving”) in [3] was at least 10 mg/mL.
Regarding `CC(CCC(=O)OCOP(=O)(O)O)C1CCC2C3C(O)CC4CC(O)CCC4(C)C3CCC12C` (stereo not shown) [Compound 19b, ursodeoxycholic acid phosphonooxymethoxy ester], in data set [2], the “percent starting material remaining” value is 36% and the “stability on cold storage” value is “stable for extended periods of time when stored in a freezer”. Moreover, in data set [3], the “aqueous solubility, rapidly dissolving” value is at least 20 mg/mL.
Take `CC(CCC(=O)OCOP(=O)(O)O)C1CCC2C3C(O)CC4CC(O)CCC4(C)C3CCC12C` (stereo not shown) [Compound 19c, ursodeoxycholic acid phosphonooxymethoxy ester]: the “percent starting material remaining” value in data set [2] is recorded as 34%.
For `CC(CCC(=O)OCOP(=O)(O)O)C1CCC2C3C(O)CC4CC(O)CCC4(C)C3CCC12C` (stereo not shown) [Compound 19d, ursodeoxycholic acid phosphonooxymethoxy ester], in data set [4], the “percent remaining in pH 7.4 tris buffer” value worked out at 81%. In data set [1], the “decomposition by 31P NMR in buffer” value is “Neither compound showed decomposition”. For the same molecule, the “percent starting material remaining” value in [2] is on record as 88%. For the same molecule, the “chemical stability in solution” value in data set [2] (solution, ambient temperature) is “decomposed at a much slower rate”. Also, the “stability on cold storage” value in data set [2] (listed as mono-Tris salt of 19) was “stable for extended periods when stored cold”. Further, in [3], the “aqueous solubility, rapidly dissolving” value is recorded as over 20 mg/mL. In data set [5], the “rate of alkaline phosphatase catalyzed release of UDCA” value is reported as “more rapidly released”.
As for `COc1ccc2c(c1)c(C1=C(c3c[nH]c4ccccc34)C(=O)NC1=O)cn2CCCN(C)C` [Go6983], the “impact on UDCA-mediated protection against SNP-induced cytotoxicity” value in the data set on SH-SY5Y cells [6] is reported as “did not have significant impact”. Besides, in the data set with SH-SY5Y cells [7], the “cell viability, inhibitor alone” value is given as “had no effects on cell viability”.
For the molecule `O=c1cc(N2CCOCC2)oc2c(-c3ccccc3)cccc12` [LY294002], the “impact on UDCA-mediated protection against SNP-induced cytotoxicity” value in the data set with SH-SY5Y cells [6] was “reversed”.
Turning to `C[C@H](CCC(=O)NCCS(=O)(=O)O)[C@H]1CC[C@H]2[C@@H]3[C@@H](O)C[C@@H]4C[C@H](O)CC[C@]4(C)[C@H]3CC[C@]12C` [TUDCA, tauroursodeoxycholic acid], the “Bax-induced alterations in mitochondrial membrane polarity” value with mitochondrial membrane (FIG. 1) is “prevents”. In addition, the “Bax-induced alterations in mitochondrial membrane protein order” value in the data set on mitochondrial membrane (FIG. 2) is reported as “prevents”.
For `C[C@H](CCC(=O)O)[C@H]1CC[C@H]2[C@@H]3[C@@H](O)C[C@@H]4C[C@H](O)CC[C@]4(C)[C@H]3CC[C@]12C` [UDCA, ursodeoxycholic acid], the “ROS generation, % of SNP-treated group” value in the data set with SH-SY5Y cells [8] (50 μM pretreatment) is 79.68%; with SH-SY5Y cells [8] (100 μM pretreatment), 72.59%; with SH-SY5Y cells [8] (200 μM pretreatment) it was 58.09%. The activity at 50 µM in the data set with SH-SY5Y cells [9] (Homo sapiens, SH-SY5Y, 50 μM pretreatment, 1 mM SNP 12 h, read-out: MMP, % of control group) worked out at 71%. In the data set on SH-SY5Y cells [9] (Homo sapiens, SH-SY5Y, 100 μM pretreatment, 1 mM SNP 12 h, read-out: MMP, % of control group), the activity at 100 µM was 88%. Further, the activity at 200 µM in the data set on SH-SY5Y cells [9] (Homo sapiens, SH-SY5Y, 200 μM pretreatment, 1 mM SNP 12 h, read-out: MMP, % of control group) is 87%. In addition, the “MMP, substance alone” value with SH-SY5Y cells [9] (no SNP, FIG. 4B) is “did not show any alterations in MMP”. In addition, the entries for the “NO production compared with the group treated with SNP alone” value with SH-SY5Y cells [10] (50 μM pretreatment), with SH-SY5Y cells [10] (100 μM pretreatment) and in the data set on SH-SY5Y cells [10] (200 μM pretreatment) were 91.44%, 82.88% and 77.26%, respectively. The apoptotic rate in the data set on SH-SY5Y cells [11] stood at 8.45±2.01%. For the same molecule, the “altered genes fulfilling the filtering criteria” value in the data set on Primary rat hepatocytes was found to be 96 genes. Besides, the genes down-regulated with Primary rat hepatocytes turned out to be 68 genes. The same molecule had a genes up-regulated in the data set on Primary rat hepatocytes of 28 genes. Also, the “genes with alterations in expression, greater than 1.5-fold change” value with Primary rat hepatocytes is listed as “Approximately 441 genes”. In addition, the “share of genes with alterations in expression” value in the data set on Primary rat hepatocytes is recorded as about 2.76%. Further, the “cell viability, substance alone” value in the data set on SH-SY5Y cells [6] (24 h at doses of 50-200 μM, no SNP) is listed as “no obvious change in the viability”. Moreover, in the data set on SH-SY5Y cells [6] (pretreatment 1 h, then 1 mM SNP 24 h), the “SNP-induced loss of cell viability / cytotoxicity” value is given as “prevented; also recorded: significantly attenuated”. Also, the “ratio of Bcl-2/Bax” value with Bcl-2, Bax, cytochrome c (UDCA per se) was 2.52±0.16 fold of control; in the data set on Bcl-2, Bax, cytochrome c (pretreatment with UDCA prior to SNP treatment), 2.21±0.09 fold of control. Besides, in the data set on Bcl-2, Bax, cytochrome c (pretreatment with UDCA, SNP 1 mM), the “cytochrome c release from the mitochondria into the cytosol” value is 1.41±0.06 fold of control.

Source of the values: patent publication US20210122780A1, “COMPOSITIONS FOR THE PREVENTION AND TREATMENT OF PARKINSON'S DISEASE” (Metselex, Inc., priority 2018, published 2021).
